Measured values taken from patent publication US12125561B2, “Determination of JAK-STAT3 pathway activity using unique combination of target genes” (InnoSIGN B.V., priority 2017, dated 2024).

Experiments:
Format in all cases: cell-based
[1] = tested on: JAK-STAT3 cellular signaling pathway in tamoxifen initiated, transformation inducible, breast cancer model system; assay: JAK-STAT3 pathway activity prediction, lung model, data set GSE64536; conditions: FIG. 15
Description: (§1) Herein, an exemplary Bayesian network model as shown in FIG. 2 was used to model the transcriptional program of the JAK-STAT3 cellular signaling pathway in a simple manner. The model consists of three types of nodes: (a) a transcription factor (TF) element (with states “absent” and “present”) in a first layer 1; (b) target genes TG1, TG2, TGn (with states “down” and “up”) in a second layer 2, and; (c) measurement nodes linked to the expression levels of the target genes in a third layer 3. These can be microarray probesets PS1,1, PS1,2, PS1,3, PS2,1, PSn,1, PSn,m (with states “low” and “high”), as preferably used herein, but could also be other gene expression measurements such as RNAseq or RT-qPCR.
(§2) A suitable implementation of the mathematical model, herein, the exemplary Bayesian network model, is based on microarray data. The model describes (i) how the expression levels of the target genes depend on the activation of the TF element, and (ii) how probeset intensities, in turn, depend on the expression levels of the respective target genes. For the latter, probeset intensities may be taken from fRMA pre-processed Affymetrix HG-U133Plus2.0 microarrays, which are widely available from the Gene Expression Omnibus (GEO, www.ncbi.nlm.nih.gov/geo) and ArrayExpress (www.ebi.ac.uk/arrayexpress). […]

[2] = tested on: JAK-STAT3 cellular signaling pathway in epithelial cells from HaCaT cell lines; assay: JAK-STAT3 pathway activity prediction, lung model, data set GSE32975; conditions: EGF vs unstimulated control; gefitinib samples in group 6 and group 7; FIG. 11
Text: Epithelial cells from HaCaT cell lines were stimulated with epidermal growth factor (EGF) in data set GSE32975. Each group represents one replica from the cell line.

[3] = tested on: JAK-STAT3 cellular signaling pathway in Ishikawa H cells (derived endometrial carcinomas); assay: JAK-STAT3 pathway activity prediction, lung model, data set GSE20854; conditions: FIG. 12
Description: Ishikawa H cells (derived endometrial carcinomas) were dosed with either EGF (epidermal growth factor) or Iressa (gefitinib) for 12 or 24 hours in data set GSE20854.

[4] = tested on: JAK-STAT3 cellular signaling pathway in Sez-4 cell line (cutaneous T-cell lymphoma); assay: JAK-STAT3 pathway activity prediction, blood model, data set GSE8685; conditions: cells starved of IL-2 for 16 hours, then IL-2 (200 U) resp. IL-15 (20 ng/mL); FIG. 16
Description: A Sez-4 cell line which was derived from a cutaneous T-cell lymphoma (data set GSE8685). […] IL-15 (20 ng/mL).

[5] = tested on: JAK-STAT3 cellular signaling pathway in PC9 NSCLC cells; assay: JAK-STAT3 pathway activity prediction, lung model, data set GSE67051, PC9; conditions: PC 9, treated for 8 days, group 1 vs group 2; FIG. 13
Description: as §1, §2

[6] = tested on: JAK-STAT3 cellular signaling pathway in EGFR mutant cells of lung cancer; assay: JAK-STAT3 pathway activity, lung Bayesian network model, calibration on data set GSE57156; conditions: calibration samples, group 1; DMSO-treated cells considered active; FIG. 9
Description: Herein, available expression data sets of EGFR mutant cells of lung cancer from data set GSE57156 were used.
as §1
A suitable implementation of the mathematical model, herein, the exemplary Bayesian network model, is based on microarray data. The model describes (i) how the expression levels of the target genes depend on the activation of the TF element, and (ii) how probeset intensities, in turn, depend on the expression levels of the respective target genes. […]

[7] = dosed for 12 hours, compared to undosed samples harvested at 12 hours
[8] = dosed for 24 hours, compared to undosed samples harvested at 24 hours

Compound	predicted STAT3 pathway activity (odds that the TF element is present) [2]	predicted STAT3 pathway activity (odds that the TF element is present) [3, 7]	predicted STAT3 pathway activity (odds that the TF element is present) [3, 8]	also measured
CC/C(=C(\c1ccccc1)c1ccc(OCCN(C)C)cc1)c1ccccc1 [tamoxifen]				predicted JAK-STAT3 activity of EtOH-treated cells compared to cells initiated with tamoxifen ([1]; 4 hours, group 1 vs group 3): higher; predicted JAK-STAT3 activity of EtOH-treated cells compared to cells initiated with tamoxifen ([1]; 24 hours, group 2 vs group 4): higher
epidermal growth factor (NSDSECPLSHDGYCLHDGVCMYIEALDKYACNCVVGYIGERCQYRDLKWWELR; Epidermal growth factor; UniProt P01133 971-1023, looked up) [EGF, epidermal growth factor (EGF)]	higher STAT3 activity	higher STAT3 activity	higher STAT3 activity	
COc1cc2ncnc(Nc3ccc(F)c(Cl)c3)c2cc1OCCCN1CCOCC1 [gefitinib]	decreased STAT3 pathway activity	decreased STAT3 pathway activity	decreased STAT3 pathway activity	
IL-15: cytokine added to IL-2 starved Sez-4 cells				predicted JAK-STAT3 pathway status compared to the control group [4]: active
C#Cc1cccc(Nc2ncnc3cc(OCCOC)c(OCCOC)cc23)c1 [erlotinib]				predicted STAT3 activity of DMSO-treated cells compared to erlotinib-treated cells [5]: higher; JAK-STAT3 pathway status of treated cells (odds that the TF element is present) [6]: JAK-STAT3 inactive
